Source: US20230090708A1, “METHODS AND COMPOSITIONS FOR THE TREATMENT OF HEMANGIOMA” (MASSEY VENTURES LIMITED, priority 2020, published 2023)
Converted amounts (≈) assume the structure as drawn. “Also recorded” adds a separate entry of the source. Where two headings read alike, the source gives them in different places.

Key:
proliferating IH [1] = conditions: topical 1% ointments; cited from earlier work
proliferating IH [2] = conditions: cited from earlier work
IH = conditions: oral; 30 patients with IH; cited from earlier work
[3] = test system: proliferating hemangioma cells; assay: Experiment 7: different ACEi and beta blockers on one primary cell line, MTT; assay type: cell-based, human; conditions: for Results Summary: 72 hours, one cell line; for inhibition at 1 µM / inhibition at 10 µM: Homo sapiens, 72 h, read-out: Inhibition vs. Cells + Adjuvant at 72 Hours
Method: (§1) An in vitro cell culture model of infantile hemangioma was developed to assess the impact of renin-angiotensin system inhibitors on cellular proliferation. A primary cell line of proliferating infantile hemangioma cells, including haemangioma stem cells, was derived from a tissue biopsy obtained from patients during the proliferating phase of the disease. The primary cell lines are cultured in 25 cm^2 flasks using standard culture media and conditions. The cultured cells are used to seed 96-well plates with a seed cell concentration of 2500 or 5000 cells per well, with additional culture media (200 μL). All studies are performed in triplicate.
The plates are incubated overnight to allow cell adherence to the wells. The wells are photographed to confirm cell adherence and confluency. The appropriate drug(s) to be examined are subsequently added to the wells. […] The media is aspirated from each well and stored frozen for possible future analyses. Media is added to the wells and an MTT determination is undertaken according to standard protocols.
(§2) From the triplicate incubations of each drug concentration at each time, as well as for all controls, the mean±standard deviation is calculated. The net survival (optical density value) is calculated by subtracting the appropriate blank mean value from each cell culture. From the MTT data, the percentage of survival of cells in the presence of each concentration of drug after each time of culturing is determined.
Briefly, cells were seeded in 96-well plates at concentrations of 2500 cells/well in triplicate for each drug and drug combination. […] All plates were performed in triplicate. Beta blockers used in the study were (±)-propranolol, R-propranolol, S-propranolol, timolol, and betaxalol.

[4] = cited from earlier work
[5] = test system: proliferating hemangioma cell lines (n=9); assay: Example 6: single agents and combinations on nine primary cell lines, MTT, CompuSyn combination index; assay type: cell-based, human; conditions: 1 to 10 μM; 72 hours; n=9
Method: as §1
The plates are incubated overnight to allow cell adherence to the wells. The wells are photographed to confirm cell adherence and confluency. The appropriate drug(s) to be examined are subsequently added to the wells. After 24 hours, one set of plates (experimental and blank) is stopped. The media is aspirated from each well and stored frozen for possible future analyses. Media is added to the wells and an MTT determination is undertaken according to standard protocols. This is repeated at 48 and 72 hours.
as §2
A study was undertaken using combinations of ACE inhibitors, beta blockers and angiotensin II type 2 receptor blockers to inhibit proliferating hemangioma cells. […] Patient histories pertaining to each cell line is described in Table 5.
The experimental protocol was performed as per Example 1. Briefly, cells were seeded in 96-well plates at concentrations of 2500 cells/well in triplicate for each drug and drug combination. Drug(s) were added to each well 24 hours after seeding and re-dosed every 24 hours. Cell viability was assessed by MTT assay after 24, 48, and 72 hours. All plates were performed in triplicate. Drugs were assessed alone and in combination, as described in Table 6. Propranolol was used as a model beta blocker, cilazapril as a model ACE inhibitor, and SMM02 (L-159686) as a model AT2Ri. Synergy was measured using the CompuSyn open-source software protocol for quantifying synergism and antagonism that uses the median-effect equation and mass-action laws to generate a combination index (www.compusyn.com). Synergism, additive effects and antagonism are defined as a CI<1, CI=1, and CI>1, respectively.

[6] = test system: proliferating infantile haemangioma cells; assay: Example 2: single 100 μM dose on primary haemangioma cell line, MTT; assay type: cell-based, human; conditions: for inhibitory effect on haemangioma cell proliferation: 24, 48, 72 hours
Method: (§3) An in vitro cell culture model of infantile hemangioma was developed to assess the impact of renin-angiotensin system inhibitors on cellular proliferation. A primary cell line of proliferating infantile hemangioma cells, including haemangioma stem cells, was derived from a tissue biopsy obtained from patients during the proliferating phase of the disease. The primary cell lines are cultured in 25 cm^2 flasks using standard culture media and conditions. The cultured cells are used to seed 96-well plates with a seed cell concentration of 2500 or 5000 cells per well, with additional culture media (200 μL). All studies are performed in triplicate. The plates are incubated overnight to allow cell adherence to the wells. The wells are photographed to confirm cell adherence and confluency. The appropriate drug(s) to be examined are subsequently added to the wells. After 24 hours, one set of plates (experimental and blank) is stopped. The media is aspirated from each well and stored frozen for possible future analyses. Media is added to the wells and an MTT determination is undertaken according to standard protocols. This is repeated at 48 and 72 hours. From the triplicate incubations of each drug concentration at each time, as well as for all controls, the mean±standard deviation is calculated. The net survival (optical density value) is calculated by subtracting the appropriate blank mean value from each cell culture. From the MTT data, the percentage of survival of cells in the presence of each concentration of drug after each time of culturing is determined. […] This model recapitulates the process of locally administering the drug directly to the hemangioma microenvironment, which is representative of diffusing the drug through skin to reach the target cells.

[7] = test system: proliferating infantile hemangioma cells derived from multiple patients (n=5); assay: Example 4: single agents and combinations on five patient-derived cell lines, MTT; assay type: cell-based, human; conditions: for Individual Responders at 72 Hours with ≥30% Inhibition vs. Cells + Adjuvant: responders/cell lines; for Results Summary: 72 hours, n=5 cell lines; for Estimated Optimal Dosage Range in vitro / inhibition of all five patient-derived haemangioma cell lines: single agent
Method: as §3, with “The experimental protocol was performed as per Example 1. Briefly, cells were seeded in 96-well plates at a concentration” for “This model recapitulates the process”, “2500 cells/well in triplicate for each” for “locally administering the”, “and drug combination. Drug(s) were added” for “directly”, “each well 24 hours after seeding and re-dosed every 24 hours. Cell viability was assessed by MTT assay after 24, 48, and 72 hours. All plates were performed in triplicate. Drugs were assessed alone and in combination as described in Table 3.” for “the hemangioma microenvironment, which is representative of diffusing the drug through skin to reach the target cells.”

ACE = ACE (Homo sapiens, UniProt P12821); conditions: enzyme source not given; cited from earlier work
Chain of ACE (P12821 30-1306, species assumed): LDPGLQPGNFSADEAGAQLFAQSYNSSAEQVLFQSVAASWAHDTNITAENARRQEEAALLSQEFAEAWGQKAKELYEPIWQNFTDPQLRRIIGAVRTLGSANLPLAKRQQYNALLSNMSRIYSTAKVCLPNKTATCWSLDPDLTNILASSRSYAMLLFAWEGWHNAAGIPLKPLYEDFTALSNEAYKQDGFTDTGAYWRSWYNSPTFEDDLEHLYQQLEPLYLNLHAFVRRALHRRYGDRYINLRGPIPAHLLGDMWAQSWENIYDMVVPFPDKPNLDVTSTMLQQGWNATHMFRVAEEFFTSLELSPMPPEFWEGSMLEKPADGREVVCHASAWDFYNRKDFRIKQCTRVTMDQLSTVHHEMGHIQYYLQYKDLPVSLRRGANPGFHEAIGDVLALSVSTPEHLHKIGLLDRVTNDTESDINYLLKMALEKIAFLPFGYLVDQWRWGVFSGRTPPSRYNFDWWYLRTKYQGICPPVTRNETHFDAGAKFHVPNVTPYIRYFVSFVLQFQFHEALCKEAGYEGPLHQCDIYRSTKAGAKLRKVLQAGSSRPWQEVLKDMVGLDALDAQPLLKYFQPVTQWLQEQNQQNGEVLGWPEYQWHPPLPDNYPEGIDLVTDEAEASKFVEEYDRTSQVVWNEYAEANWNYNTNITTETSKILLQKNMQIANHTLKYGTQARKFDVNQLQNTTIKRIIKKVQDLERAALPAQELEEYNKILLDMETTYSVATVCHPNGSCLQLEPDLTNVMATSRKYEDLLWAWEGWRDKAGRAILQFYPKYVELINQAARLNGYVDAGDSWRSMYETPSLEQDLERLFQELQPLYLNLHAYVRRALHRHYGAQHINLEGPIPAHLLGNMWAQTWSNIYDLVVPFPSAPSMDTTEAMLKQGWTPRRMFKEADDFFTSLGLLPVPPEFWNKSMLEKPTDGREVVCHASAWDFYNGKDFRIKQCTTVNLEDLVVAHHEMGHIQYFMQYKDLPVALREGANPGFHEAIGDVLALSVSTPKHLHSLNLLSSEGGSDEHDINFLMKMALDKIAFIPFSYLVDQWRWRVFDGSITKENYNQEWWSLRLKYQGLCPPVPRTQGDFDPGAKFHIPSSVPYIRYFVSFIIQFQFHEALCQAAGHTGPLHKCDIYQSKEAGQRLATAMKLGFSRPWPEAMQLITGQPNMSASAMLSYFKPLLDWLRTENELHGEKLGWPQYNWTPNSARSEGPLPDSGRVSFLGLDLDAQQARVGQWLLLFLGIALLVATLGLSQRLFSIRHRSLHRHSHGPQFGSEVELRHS

[8] = cited from earlier work; remark: listed apart in the source
[9] = cited from earlier work; remark: listed apart in the source
[10] = in words; cited from earlier work
proliferating IH [11] = conditions: topical 0.5% solution or gel; cited from earlier work

Structure (SMILES)	Results Summary [3]	inhibition at 1 µM [3] [%]	inhibition at 10 µM [3] [%]	inhibitory effect on haemangioma cell proliferation [6]	Individual Responders at 72 Hours with ≥30% Inhibition vs. Cells + Adjuvant ([7]; 1 μM)	Individual Responders at 72 Hours with ≥30% Inhibition vs. Cells + Adjuvant ([7]; 10 μM) [μM - 4/5]	Results Summary [7]	Estimated Optimal Dosage Range in vitro [7] [µM]	inhibition of all five patient-derived haemangioma cell lines [7]	other results
CC(C)NCC(O)COc1cccc2ccccc12 (racemic) [(±) Propranolol, Propranolol]	Responder	< 0	47.5							good response (proliferating IH [1]): 57-59%; good to modest response rates (proliferating IH [1]): 75-90%; modest response (proliferating IH [1]): 26-33%; no response (proliferating IH [1]): 10-15%; patients treated showing an improvement (proliferating IH [2]; oral low dose, within 5 weeks): approximately 88%; patients successfully treated (proliferating IH [2]; oral, overall): approximately 60%; clinical improvement versus captopril (IH): significantly better and faster
CCOC(=O)[C@H](CCc1ccccc1)N[C@H]1CCCN2CCC[C@@H](C(=O)O)N2C1=O [Cilazapril]	Responder	4.35	60.5	diminishes over time	1 μM - 1/5	10	Responder	1 to 10	significantly inhibited	pKa [4]: 3.4; pKa ([4]; second value): 6.5; dose-response across all cell lines [5]: typical dose-response; increase in the inhibition of haemangioma cell proliferation compared to timolol ([6]; 24 hours): 7 fold; IC50 (ACE): 4 nM; Solubility [8]: 5000 µg/mL (≈ 12 mM); Log P ([9]; Table 1): 0.8; log P [9]: 0.8; Half life: short or long acting [10]: Long acting; inhibition of proliferating hemangioma cells ([3]; 1 μM and 10 μM): good and similar level of inhibition
CC(C)(C)NC[C@H](O)COc1nsnc1N1CCOCC1 [Timolol]	Responder	11.1	57	little effect; also recorded: consistent	1 μM - 0/5	10	Responder	1 to 10	significantly inhibited	clinical response (proliferating IH [11]): clinically beneficial response
